Experimental findings from patent US20240252508A1, “Novel glucose uptake inhibitors for use in the treatment of cancer” (NOVELYEAST BV, priority 2021, published 2024) are described below.

As a reminder, the pIC50 is the negative decadic logarithm of the IC50, by convention in mol/L. Low readings indicate a large IC50, high ones a small IC50.

SMILES strings stand for the structures. pIC50: −log10 of the molar value.

For one test, the target named is T1, yeast Hxt7 (Saccharomyces cerevisiae, UniProt P39004).
T1 construct: HA (C); expressed in transfected cells; host or cells: S. cerevisiae RE700A (hxt0 gal2Δ) in A5; EBY.VW4000 (hxt0 erg4Δ) in A7; plasmid 'pHXT7'
T1 sequence (P39004 whole entry): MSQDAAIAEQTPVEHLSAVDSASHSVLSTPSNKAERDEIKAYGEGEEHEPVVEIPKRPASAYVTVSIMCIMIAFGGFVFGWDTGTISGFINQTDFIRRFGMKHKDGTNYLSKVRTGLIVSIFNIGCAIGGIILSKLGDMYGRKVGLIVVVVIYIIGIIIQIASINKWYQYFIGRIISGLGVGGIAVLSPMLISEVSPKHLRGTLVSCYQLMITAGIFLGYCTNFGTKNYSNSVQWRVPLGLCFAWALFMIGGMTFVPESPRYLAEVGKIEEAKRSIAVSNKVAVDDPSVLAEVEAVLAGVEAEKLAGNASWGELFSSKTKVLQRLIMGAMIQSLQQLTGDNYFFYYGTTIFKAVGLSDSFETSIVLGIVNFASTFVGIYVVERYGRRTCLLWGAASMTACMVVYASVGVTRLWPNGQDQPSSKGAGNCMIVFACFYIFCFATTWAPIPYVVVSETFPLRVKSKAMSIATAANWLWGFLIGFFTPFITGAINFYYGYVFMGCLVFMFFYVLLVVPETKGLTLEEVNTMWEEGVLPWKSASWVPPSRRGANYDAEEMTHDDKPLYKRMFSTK
The experiment in a line: Glucose uptake by Hxt7 expressed in hxt^0 erg4Δ (EBY.VW4000) yeast. In kind it is cell-based, S. cerevisiae. The text has this:
(§1) To assess whether WBC-A could inhibit glucose transport activity of the GLUT carriers, we expressed human GLUT1^V69M and GLUT4^V85M in a hxt^0 gal2Δ (RE700A) and hxt^0 erg4Δ (EBY.VW4000) strain, respectively. These strains are both deficient in glucose uptake due to absence of all active glucose transporters. For functional GLUT expression in yeast, specific mutations had to be introduced in both sequences, whereas for GLUT4, an additional ERG4 gene deletion was required^64,65,66.
(§2) Zero-trans uptake of radioactively labeled [U-^14C]glucose, [U-^14C]fructose or [U-^14C]galactose by S. cerevisiae cells was determined in accordance with previous studies^44,66. Cells were grown on different carbon sources depending on the experiment. For measuring glucose uptake activity in the tps1Δ and tps1Δ hxtA strains (FIG. 1b,c), cells were grown on YP medium containing 3% glycerol (measurement of 10s). Typically, for compound characterization and kinetic studies in wild type and tps1Δ strains, cells were (pre)grown on Complete Synthetic medium supplemented with 2% galactose (measurement of 10s). […] The loaded filter was transferred to a scintillation vial containing 3 mL liquid scintillation cocktail (Ultima-Flo M, Perkin Elmer) and counted using the Hidex 300 SL. […]

Test [1] has as its system A549 lung adenocarcinoma cells. The experiment in a line: A549 cell proliferation / growth inhibition. In kind it is cell-based, human. In a few lines:
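A549 growth screened in RPMI with 1 mM glucose, compounds at 50 μM; cell number from counts of Hoechst-stained nuclei after 3 days. Growth curves also followed by IncuCyte phase-contrast confluency over 3–5 days (1000–1500 cells/well), DMSO ≤0.1%, ≥4 technical repeats.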

In another test the target is T2, human GLUT4^V85M (Homo sapiens, UniProt P14672, V85M).
T2 construct: HA (C); expressed in transfected cells; host or cells: S. cerevisiae EBY.VW4000 (hxt0 erg4Δ), plasmid pFL38Kan-GLUT4^V85M (TEF1 promoter, low-copy)
T2 sequence (P14672 1-509 V85M): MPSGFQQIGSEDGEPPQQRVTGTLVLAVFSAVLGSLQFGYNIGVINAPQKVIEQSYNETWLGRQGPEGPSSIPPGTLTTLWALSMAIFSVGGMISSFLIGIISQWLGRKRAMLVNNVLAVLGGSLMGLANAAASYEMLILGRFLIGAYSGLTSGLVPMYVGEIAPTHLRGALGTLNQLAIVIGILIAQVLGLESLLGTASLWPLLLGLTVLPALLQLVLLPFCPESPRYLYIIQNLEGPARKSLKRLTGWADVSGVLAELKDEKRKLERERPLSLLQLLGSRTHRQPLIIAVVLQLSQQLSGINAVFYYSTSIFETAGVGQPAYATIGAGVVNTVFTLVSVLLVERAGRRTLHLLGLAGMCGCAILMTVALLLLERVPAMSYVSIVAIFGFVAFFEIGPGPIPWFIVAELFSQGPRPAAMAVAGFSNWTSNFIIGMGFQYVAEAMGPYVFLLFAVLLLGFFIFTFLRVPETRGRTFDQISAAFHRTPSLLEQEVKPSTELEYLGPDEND
Description: Glucose uptake by GLUT4^V85M expressed in hxt^0 erg4Δ (EBY.VW4000) yeast. In kind it is cell-based. The conditions noted are these: 2.5 mM glucose.
From the text: as §1, §2

The subject of another test is hexokinase. The experiment in a line: In vitro hexokinase activity in extracts of wild type cells. The conditions noted are these: 50 μM WBC-A. In kind it is biochemical, S. cerevisiae. As to the method: In vitro hexokinase activity was determined as described previously 43, s. As such, cells were first grown to exponential phase on complete Synthetic medium supplemented with 2% galactose. The cells were harvested and washed with ice-cold 25 mM MES buffer pH 6. Subsequently, cells were resuspended in lysis buffer (50 mM HEPES pH 7, 150 mM NaCl, 2.5 mM MgCl2, 5% glycerol and 1% Triton X-100) containing protease inhibitor after which the cells were mechanically lysed. After protein level determination, total protein concentration was diluted to 0.1 mg/mL in reaction buffer (50 mM HEPES pH 7, 150 mM NaCl, 2.5 mM MgCl2, 5% glycerol). For measuring activity, reaction buffer was supplemented with 0.8 mg/mL NADP^+ and 50 μg/mL Glu6P dehydrogenase. After temperature equilibration of the plate at 30° C., the reaction was started by adding both ATP and glucose to the reaction buffer. OD340 was measured using the Synergy H1 Hybrid reader and hexokinase activity was determined based on the linear increase of absorbance in the first 10-20s.

With `Cc1nc(Sc2nnc3n2CCCCC3)c2c(-c3cccs3)csc2n1` [WBC-A], the pIC50 against yeast Hxt7 was 4.89; at human GLUT4^V85M, 4.68. In addition, in test [1] (1 mM glucose, 6.25-50 μM), the “Potency in reducing maximal growth rate of A549 cells” value was “intermediate potency”. In addition, the “Proliferation of A549 cells in RPMI medium with 1 mM or 5 mM glucose” value in test [1] (12.5-50 μM WBC-A) was “dose-dependent inhibition of growth”. Also, the “Effect on in vitro hexokinase activity” value with hexokinase is “No significant effect”.
